This note sets out measurements from US12404241B2 (Celgene Corporation, priority 2018, dated 2025).

Where only a bound is given, the exact number is not on record here.

For orientation: DC50 means the concentration at which degradation of the target reaches its halfway point.

The assay deals with T1, AR (Homo sapiens, UniProt P10275).
T1 construct: endogenous in cells; host or cells: VCaP cells
T1 sequence (P10275 1-920): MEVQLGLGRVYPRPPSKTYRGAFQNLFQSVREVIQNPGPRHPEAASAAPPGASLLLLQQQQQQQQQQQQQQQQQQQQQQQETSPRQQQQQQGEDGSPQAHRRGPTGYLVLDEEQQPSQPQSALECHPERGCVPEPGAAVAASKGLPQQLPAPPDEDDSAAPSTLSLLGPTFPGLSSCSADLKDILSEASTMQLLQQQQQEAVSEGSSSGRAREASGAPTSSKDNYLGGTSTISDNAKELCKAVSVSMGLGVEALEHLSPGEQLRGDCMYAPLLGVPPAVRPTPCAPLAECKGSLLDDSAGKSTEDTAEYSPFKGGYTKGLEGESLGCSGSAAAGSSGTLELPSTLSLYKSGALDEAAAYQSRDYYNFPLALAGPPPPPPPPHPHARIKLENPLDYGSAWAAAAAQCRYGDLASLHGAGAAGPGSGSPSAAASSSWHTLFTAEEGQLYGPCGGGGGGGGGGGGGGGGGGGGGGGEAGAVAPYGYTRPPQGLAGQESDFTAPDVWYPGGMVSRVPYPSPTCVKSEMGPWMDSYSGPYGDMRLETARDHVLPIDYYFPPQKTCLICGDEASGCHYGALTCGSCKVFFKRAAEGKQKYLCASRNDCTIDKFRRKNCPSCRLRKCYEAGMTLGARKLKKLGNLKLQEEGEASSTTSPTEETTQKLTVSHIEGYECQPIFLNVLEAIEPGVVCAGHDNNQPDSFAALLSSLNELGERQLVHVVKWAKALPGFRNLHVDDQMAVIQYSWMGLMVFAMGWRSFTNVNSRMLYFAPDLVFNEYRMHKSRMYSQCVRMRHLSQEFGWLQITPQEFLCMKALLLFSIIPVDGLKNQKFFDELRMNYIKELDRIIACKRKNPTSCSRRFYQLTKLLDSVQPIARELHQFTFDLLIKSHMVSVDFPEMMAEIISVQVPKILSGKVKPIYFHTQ
In words: VCAP AR Degradation Assay. The assay is classed as cell-based. The following applies: for Y (AR degradation efficiency, % of DMSO control): class symbols *; for DC50: class symbols A-C, read-out: DC50. The gist of the method: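 VCaP cells treated 24 h at 37 °C with a 10-point 1:3 series (top 5 μM final; 0.1% DMSO control). Lysate AR measured by sandwich ELISA, normalized to DMSO as percent of control; DC50, EC50 and lowest AR level (Y) from four-parameter logistic fit.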

On to `CCc1cc(N2C(=S)N(c3cnc(C#N)c(C(F)(F)F)c3)C(=O)C2(C)C)ccc1OCCN1CCN(CC(=O)Nc2cccc(NC3CCC(=O)NC3=O)c2)[C@@H](C(F)(F)F)C1` (stereo partly drawn) [Example 200, 2-((R)-4-(2-(4-(3-(6-cyano-5-(trifluoromethyl)pyridin-3-yl)-5,5-dimethyl-4-oxo-2-thioxoimidazolidin-1-yl)-2-ethylphenoxy)ethyl)-2-(trifluoromethyl)piperazin-1-yl)-N-(3-(2,6-dioxopiperidin-3-ylamino)phenyl)acetamide], for which the “Y (AR degradation efficiency, % of DMSO control)” value is listed as “* (0<Y<=25%)” and the half-maximal degradation concentration (DC50) was less than 100 nM.
Consider `CCc1cc(N2C(=S)N(c3cnc(C#N)c(C(F)(F)F)c3)C(=O)C2(C)C)ccc1OCCN1CCN(CC(=O)Nc2cccc(NC3CCC(=O)NC3=O)c2)[C@H](C(F)(F)F)C1` (stereo partly drawn) [Example 201, 2-((S)-4-(2-(4-(3-(6-cyano-5-(trifluoromethyl)pyridin-3-yl)-5,5-dimethyl-4-oxo-2-thioxoimidazolidin-1-yl)-2-ethylphenoxy)ethyl)-2-(trifluoromethyl)piperazin-1-yl)-N-(3-(2,6-dioxopiperidin-3-ylamino)phenyl)acetamide], for which the “Y (AR degradation efficiency, % of DMSO control)” value is given as “* (0<Y<=25%)” and the DC50 is less than 100 nM.
Regarding `CC(C)c1cc(N2C(=S)N(c3ccc(C#N)c(Cl)c3)C(=O)C2(C)C)ccc1OCCN1C[C@@H](C)N(CC(=O)Nc2cccc(NC3CCC(=O)NC3=O)c2)[C@@H](C)C1` (stereo partly drawn) [Example 202, 2-((2S,6R)-4-(2-(4-(3-(3-chloro-4-cyanophenyl)-5,5-dimethyl-4-oxo-2-thioxoimidazolidin-1-yl)-2-isopropylphenoxy)ethyl)-2,6-dimethylpiperazin-1-yl)-N-(3-(2,6-dioxopiperidin-3-ylamino)phenyl)acetamide], the “Y (AR degradation efficiency, % of DMSO control)” value was “* (0<Y<=25%)” and the DC50 is less than 100 nM.
On to `C[C@@H]1CN(CC(=O)Nc2cccc(NC3CCC(=O)NC3=O)c2)[C@H](C)CN1CCOc1ccc(N2C(=S)N(c3ccc(C#N)c(C(F)(F)F)c3)C(=O)C2(C)C)cc1C1CC1` (stereo partly drawn) [Example 203, 2-((2R,5R)-4-(2-(4-(3-(4-cyano-3-(trifluoromethyl)phenyl)-5,5-dimethyl-4-oxo-2-thioxoimidazolidin-1-yl)-2-cyclopropylphenoxy)ethyl)-2,5-dimethylpiperazin-1-yl)-N-(3-(2,6-dioxopiperidin-3-ylamino)phenyl)acetamide], for which the “Y (AR degradation efficiency, % of DMSO control)” value is on record as “* (0<Y<=25%)” and the DC50 is less than 100 nM.
For `C[C@@H]1CN(CCOc2ccc(N3C(=S)N(c4ccc(C#N)c(C(F)(F)F)c4)C(=O)C3(C)C)cc2C2CC2)C[C@H](C)N1CC(=O)Nc1cccc(NC2CCC(=O)NC2=O)c1` (stereo partly drawn) [Example 204, 2-((2S,6R)-4-(2-(4-(3-(4-cyano-3-(trifluoromethyl)phenyl)-5,5-dimethyl-4-oxo-2-thioxoimidazolidin-1-yl)-2-cyclopropylphenoxy)ethyl)-2,6-dimethylpiperazin-1-yl)-N-(3-(2,6-dioxopiperidin-3-ylamino)phenyl)acetamide] the same measures were “* (0<Y<=25%)” and less than 100 nM.
With `C[C@@H]1CN(CC(=O)Nc2cccc(NC3CCC(=O)NC3=O)c2)[C@H](C)CN1CCOc1ccc(N2C(=S)N(c3ccc(C#N)c(Cl)c3)C(=O)C2(C)C)cc1C1CC1` (stereo partly drawn) [Example 205, 2-((2R,5R)-4-(2-(4-(3-(3-chloro-4-cyanophenyl)-5,5-dimethyl-4-oxo-2-thioxoimidazolidin-1-yl)-2-cyclopropylphenoxy)ethyl)-2,5-dimethylpiperazin-1-yl)-N-(3-(2,6-dioxopiperidin-3-ylamino)phenyl)acetamide], the “Y (AR degradation efficiency, % of DMSO control)” value is listed as “* (0<Y<=25%)” and the DC50 is less than 100 nM.
Consider `C[C@@H]1CN(CCOc2ccc(N3C(=S)N(c4ccc(C#N)c(Cl)c4)C(=O)C3(C)C)cc2C2CC2)C[C@H](C)N1CC(=O)Nc1cccc(NC2CCC(=O)NC2=O)c1` (stereo partly drawn) [Example 206, 2-((2S,6R)-4-(2-(4-(3-(3-chloro-4-cyanophenyl)-5,5-dimethyl-4-oxo-2-thioxoimidazolidin-1-yl)-2-cyclopropylphenoxy)ethyl)-2,6-dimethylpiperazin-1-yl)-N-(3-(2,6-dioxopiperidin-3-ylamino)phenyl)acetamide], for which the “Y (AR degradation efficiency, % of DMSO control)” value is given as “* (0<Y<=25%)” and the DC50 is less than 100 nM.
As to `CC(C)c1cc(N2C(=S)N(c3ccc(C#N)c(Cl)c3)C(=O)C2(C)C)ccc1OCCN1C[C@@H](C)N(CC(=O)Nc2cccc(NC3CCC(=O)NC3=O)c2)C[C@H]1C` (stereo partly drawn) [Example 207, 2-((2R,5R)-4-(2-(4-(3-(3-chloro-4-cyanophenyl)-5,5-dimethyl-4-oxo-2-thioxoimidazolidin-1-yl)-2-isopropylphenoxy)ethyl)-2,5-dimethylpiperazin-1-yl)-N-(3-(2,6-dioxopiperidin-3-ylamino)phenyl)acetamide], the “Y (AR degradation efficiency, % of DMSO control)” value was “** (25%<Y<=35%)” and the DC50 was in the range of 100 to 500 nM.
Turning to `CC(C)c1cc(N2C(=S)N(c3ccc(C#N)c(C(F)(F)F)c3)C(=O)C2(C)C)ccc1OCCN1C[C@@H](C)N(CC(=O)Nc2cc(Cl)cc(NC3CCC(=O)NC3=O)c2)[C@@H](C)C1` (stereo partly drawn) [Example 208, N-(3-chloro-5-(2,6-dioxopiperidin-3-ylamino)phenyl)-2-((2S,6R)-4-(2-(4-(3-(4-cyano-3-(trifluoromethyl)phenyl)-5,5-dimethyl-4-oxo-2-thioxoimidazolidin-1-yl)-2-isopropylphenoxy)ethyl)-2,6-dimethylpiperazin-1-yl)acetamide], the “Y (AR degradation efficiency, % of DMSO control)” value is listed as “* (0<Y<=25%)” and the DC50 was 100 to 500 nM.
In the same order, the values of `CC(C)c1cc(N2C(=S)N(c3cnc(C#N)c(C(F)(F)F)c3)C(=O)C23CCC3)ccc1OCCN1C[C@@H](C)N(CC(=O)Nc2cc(NC3CCC(=O)NC3=O)ccc2F)[C@@H](C)C1` (stereo partly drawn) [Example 209, 2-((2S,6R)-4-(2-(4-(7-(6-cyano-5-(trifluoromethyl)pyridin-3-yl)-8-oxo-6-thioxo-5,7-diazaspiro[3.4]octan-5-yl)-2-isopropylphenoxy)ethyl)-2,6-dimethylpiperazin-1-yl)-N-(5-(2,6-dioxopiperidin-3-ylamino)-2-fluorophenyl)acetamide] are “** (25%<Y<=35%)” and 100 to 500 nM.
For `CC(C)c1cc(N2C(=S)N(c3cnc(C#N)c(C(F)(F)F)c3)C(=O)C23CCC3)ccc1OCCN1C[C@@H](C)N(CC(=O)Nc2cc(C#N)cc(NC3CCC(=O)NC3=O)c2)[C@@H](C)C1` (stereo partly drawn) [Example 210, N-(3-cyano-5-(2,6-dioxopiperidin-3-ylamino)phenyl)-2-((2S,6R)-4-(2-(4-(7-(6-cyano-5-(trifluoromethyl)pyridin-3-yl)-8-oxo-6-thioxo-5,7-diazaspiro[3.4]octan-5-yl)-2-isopropylphenoxy)ethyl)-2,6-dimethylpiperazin-1-yl)acetamide] the same measures were “* (0<Y<=25%)” and less than 100 nM.
For `CC(C)c1cc(N2C(=S)N(c3cnc(C#N)c(C(F)(F)F)c3)C(=O)C23CCC3)ccc1OCCN1C[C@@H](C)N(CC(=O)Nc2cc(F)cc(NC3CCC(=O)NC3=O)c2)[C@@H](C)C1` (stereo partly drawn) [Example 211, 2-((2S,6R)-4-(2-(4-(7-(6-cyano-5-(trifluoromethyl)pyridin-3-yl)-8-oxo-6-thioxo-5,7-diazaspiro[3.4]octan-5-yl)-2-isopropylphenoxy)ethyl)-2,6-dimethylpiperazin-1-yl)-N-(3-(2,6-dioxopiperidin-3-ylamino)-5-fluorophenyl)acetamide] the same measures were “* (0<Y<=25%)” and less than 100 nM.
With `C[C@@H]1CN(CCOc2ccc(N3C(=S)N(c4cnc(C#N)c(C(F)(F)F)c4)C(=O)C34CCC4)cc2C2CC2)C[C@H](C)N1CC(=O)Nc1cc(C#N)cc(NC2CCC(=O)NC2=O)c1` (stereo partly drawn) [Example 212, N-(3-cyano-5-(2,6-dioxopiperidin-3-ylamino)phenyl)-2-((2S,6R)-4-(2-(4-(7-(6-cyano-5-(trifluoromethyl)pyridin-3-yl)-8-oxo-6-thioxo-5,7-diazaspiro[3.4]octan-5-yl)-2-cyclopropylphenoxy)ethyl)-2,6-dimethylpiperazin-1-yl)acetamide], the “Y (AR degradation efficiency, % of DMSO control)” value is reported as “* (0<Y<=25%)” and the DC50 is less than 100 nM.
